SMILES strings stand for the structures. Active and inactive are the calls of the source. No cut-off for these calls is given here.

This passage reports inhibition results from ChEMBL document CHEMBL4043180, “Biological evaluation of 2-pyrazolinyl-1-carbothioamide derivatives against HCT116 human colorectal cancer cell lines and elucidation on QSAR and molecular binding modes” (Bioorg Med Chem, 2017).

Test [1] concerns the target Bcr/Abl fusion protein (Homo sapiens) (UniProt P00519+P11274). The test can be described thus: Inhibition of BCR/ABL Tyr245 phosphorylation in human K562 cells at 20 uM incubated for 6 to 24 hrs. It is filed as cell-based.
Test [2] deals with Tyrosine-protein kinase ABL1 (Homo sapiens) (UniProt P00519). The test can be described thus: Inhibition of Abl1 (unknown origin) at 10 uM.
Sequence of Tyrosine-protein kinase ABL1 (Homo sapiens) (P00519 whole entry): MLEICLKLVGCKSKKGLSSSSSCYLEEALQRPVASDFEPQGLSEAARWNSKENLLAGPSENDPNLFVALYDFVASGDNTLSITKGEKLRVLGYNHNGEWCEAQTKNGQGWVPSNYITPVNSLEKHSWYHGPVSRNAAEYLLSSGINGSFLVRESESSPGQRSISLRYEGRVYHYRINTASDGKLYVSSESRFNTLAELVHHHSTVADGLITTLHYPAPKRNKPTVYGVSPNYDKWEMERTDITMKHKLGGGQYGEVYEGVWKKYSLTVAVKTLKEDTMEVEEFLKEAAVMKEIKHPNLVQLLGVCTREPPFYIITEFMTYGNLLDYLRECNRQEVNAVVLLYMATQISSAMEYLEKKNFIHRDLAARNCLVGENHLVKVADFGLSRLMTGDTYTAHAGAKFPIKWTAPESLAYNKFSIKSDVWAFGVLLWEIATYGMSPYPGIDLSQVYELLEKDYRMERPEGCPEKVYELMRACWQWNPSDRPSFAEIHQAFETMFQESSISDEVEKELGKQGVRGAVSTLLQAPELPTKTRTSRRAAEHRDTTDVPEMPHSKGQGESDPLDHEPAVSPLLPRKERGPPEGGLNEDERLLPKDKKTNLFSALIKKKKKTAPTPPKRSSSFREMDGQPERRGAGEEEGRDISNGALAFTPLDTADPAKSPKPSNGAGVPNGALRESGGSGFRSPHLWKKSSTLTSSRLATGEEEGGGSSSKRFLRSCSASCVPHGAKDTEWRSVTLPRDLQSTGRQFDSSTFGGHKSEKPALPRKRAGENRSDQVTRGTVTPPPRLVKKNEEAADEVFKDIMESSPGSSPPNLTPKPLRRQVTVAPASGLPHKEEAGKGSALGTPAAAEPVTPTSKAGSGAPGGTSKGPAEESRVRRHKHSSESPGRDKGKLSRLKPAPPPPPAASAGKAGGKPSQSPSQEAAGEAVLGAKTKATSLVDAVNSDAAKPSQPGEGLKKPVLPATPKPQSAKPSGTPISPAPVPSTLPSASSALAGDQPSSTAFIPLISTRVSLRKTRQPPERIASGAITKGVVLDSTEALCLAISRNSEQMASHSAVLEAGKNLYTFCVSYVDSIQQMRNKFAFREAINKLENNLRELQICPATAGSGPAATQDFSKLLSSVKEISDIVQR

Sequence of Bcr/Abl fusion protein (Homo sapiens) (P00519 whole entry, looked up, the tested form may be a part): as the sequence (P00519 whole entry) above
Sequence of Bcr/Abl fusion protein (Homo sapiens) (P11274 whole entry, looked up, the tested form may be a part): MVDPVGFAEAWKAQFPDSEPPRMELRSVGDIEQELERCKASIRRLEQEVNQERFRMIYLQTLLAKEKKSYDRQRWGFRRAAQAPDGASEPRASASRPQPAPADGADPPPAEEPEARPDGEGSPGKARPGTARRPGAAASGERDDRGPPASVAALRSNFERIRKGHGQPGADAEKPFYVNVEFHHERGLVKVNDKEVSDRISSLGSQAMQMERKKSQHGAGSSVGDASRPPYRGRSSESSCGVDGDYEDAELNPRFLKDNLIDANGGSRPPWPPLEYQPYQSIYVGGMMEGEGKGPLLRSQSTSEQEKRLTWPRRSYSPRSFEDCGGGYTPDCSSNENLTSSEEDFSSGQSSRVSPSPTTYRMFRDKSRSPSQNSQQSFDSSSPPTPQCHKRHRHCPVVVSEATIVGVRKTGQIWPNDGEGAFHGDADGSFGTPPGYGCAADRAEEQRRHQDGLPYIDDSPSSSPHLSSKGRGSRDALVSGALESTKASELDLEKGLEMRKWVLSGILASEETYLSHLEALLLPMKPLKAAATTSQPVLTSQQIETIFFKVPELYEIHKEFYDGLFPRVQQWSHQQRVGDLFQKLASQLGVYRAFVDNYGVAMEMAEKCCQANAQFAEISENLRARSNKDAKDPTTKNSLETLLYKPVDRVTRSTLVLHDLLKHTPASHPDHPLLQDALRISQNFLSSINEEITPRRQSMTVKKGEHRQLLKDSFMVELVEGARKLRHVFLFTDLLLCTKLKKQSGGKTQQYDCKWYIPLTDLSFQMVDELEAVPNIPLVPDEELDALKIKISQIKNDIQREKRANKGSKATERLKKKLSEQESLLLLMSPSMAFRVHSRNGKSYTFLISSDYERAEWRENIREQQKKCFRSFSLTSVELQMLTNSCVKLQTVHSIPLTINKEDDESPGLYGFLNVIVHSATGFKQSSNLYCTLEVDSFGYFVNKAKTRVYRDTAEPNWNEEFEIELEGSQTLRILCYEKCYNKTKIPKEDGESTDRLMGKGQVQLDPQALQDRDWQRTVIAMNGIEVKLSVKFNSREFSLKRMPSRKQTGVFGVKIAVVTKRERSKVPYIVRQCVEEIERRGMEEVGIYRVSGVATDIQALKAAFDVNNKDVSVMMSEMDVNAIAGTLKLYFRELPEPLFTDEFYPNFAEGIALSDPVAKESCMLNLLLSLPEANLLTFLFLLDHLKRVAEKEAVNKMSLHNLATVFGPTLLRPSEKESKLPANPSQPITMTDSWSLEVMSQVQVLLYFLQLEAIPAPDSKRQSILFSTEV

What is called inhibition is the drop in the measured response relative to a control, in per cent. Regarding `COc1cc(O)c(C2=NN(C(=S)Nc3cc(OC)c(OC)c(OC)c3)C(c3cccc4ccccc34)C2)cc1OC` (configuration not stated), the inhibition result in test [1] is “Active”. Also, in test [2], the inhibition was 93%.
